# Measurements as given in BindingDB's records for doi:10.1021/jm1002827 (Pfizer, 2010).
# Molecular target: T1, Estrogen receptor (Homo sapiens, UniProt P03372)
# T1 sequence (P03372 whole entry): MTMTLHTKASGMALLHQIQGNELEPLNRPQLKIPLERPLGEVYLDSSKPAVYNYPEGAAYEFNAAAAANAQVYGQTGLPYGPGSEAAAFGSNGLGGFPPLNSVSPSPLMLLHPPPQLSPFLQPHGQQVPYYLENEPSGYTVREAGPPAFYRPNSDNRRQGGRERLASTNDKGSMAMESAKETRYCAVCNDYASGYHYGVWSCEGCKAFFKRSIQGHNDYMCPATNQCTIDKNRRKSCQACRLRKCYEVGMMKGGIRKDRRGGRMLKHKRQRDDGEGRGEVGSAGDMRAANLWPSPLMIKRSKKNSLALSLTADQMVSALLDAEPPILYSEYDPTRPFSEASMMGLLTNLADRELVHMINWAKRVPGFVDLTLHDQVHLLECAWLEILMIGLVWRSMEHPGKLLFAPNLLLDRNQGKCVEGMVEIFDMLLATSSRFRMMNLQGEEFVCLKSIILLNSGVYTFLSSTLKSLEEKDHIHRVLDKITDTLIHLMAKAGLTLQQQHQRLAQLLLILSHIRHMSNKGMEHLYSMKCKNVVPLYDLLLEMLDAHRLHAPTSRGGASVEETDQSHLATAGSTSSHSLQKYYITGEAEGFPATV
# Assay: Inhibition of estrogen receptor
row,IC50 [µM],Compound
1,> 10,"CCCC1=C(C(=O)OCC)[C@H](c2ccnc3ccccc23)C(C#N)C(C)=N1 (stereo partly drawn) [(R)-Ethyl 5-Cyano-6-methyl-2-propyl-4-quinolin-4-yl-1,4-dihydropyridine-3-carboxylate]"
2,> 10,"CC1=NC(C)=C(C(=O)OC(C)(C)C)[C@H](c2ccc(F)cc2Cl)C1C#N (stereo partly drawn) [tert-Butyl (4R)-4-(2-Chloro-4-fluorophenyl)-5-cyano-2,6-dimethyl-1,4-dihydropyridine-3-carboxylate]"
